Results on seven compounds are retold here after PubChem BioAssay (NCI).

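Each compound was tested at five concentrations against cells in 96-well plates for 48 hours. TGI denotes the concentration required for complete inhibition of growth.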

Some test systems named below: SK-OV-3 ovarian; UO-31 renal; HS 578T breast; OVCAR-4 ovarian; RPMI-8226 leukemia; CCRF-CEM leukemia; SF-268 CNS; UACC-257 melanoma; 786-0 renal; CAKI-1 renal; MOLT-4 leukemia; DU-145 prostate; K-562 leukemia; NCI/ADR-RES ovarian; RXF 393 renal; OVCAR-5 ovarian; HCT-116 colon; KM12 colon; SF-295 CNS; XF 498 CNS.
Common to all, as to assay: DTP human tumour cell line panel, 48 h

As usually defined, the TGI is the concentration at which net growth stops. Lower therefore signals greater sensitivity of the cells. As for `Nc1ncnc2c1ncn2[C@H]1CC[C@@H](NO)C1`, the TGI in the experiment on SK-OV-3 ovarian, in the experiment on UO-31 renal, in the experiment with HS 578T breast, in the experiment with OVCAR-4 ovarian, in the experiment with RPMI-8226 leukemia and with CCRF-CEM leukemia was over 100 µM throughout. The TGI in the experiment with SF-268 CNS, with UACC-257 melanoma, with 786-0 renal, in the experiment on CAKI-1 renal, in the experiment on MOLT-4 leukemia and in the experiment on DU-145 prostate was over 100 µM throughout. Besides, the TGI with K-562 leukemia, in the experiment on NCI/ADR-RES ovarian, with RXF 393 renal, in the experiment on OVCAR-5 ovarian, in the experiment on HCT-116 colon and with KM12 colon was over 100 µM throughout. Further, the TGI in the experiment with SF-295 CNS was over 100 µM.

Regarding `C[C@]12CC[C@H](O)CC1=CC[C@@H]1[C@@H]2CC[C@]2(C)C(=N/O)/C(=C/c3ccc([N+](=O)[O-])cc3)C[C@@H]12`, the TGI with SK-OV-3 ovarian is 22.5 µM; in the experiment on UO-31 renal it was 24.7 µM; with HS 578T breast, 63.5 µM; in the experiment on OVCAR-4 ovarian, over 100 µM; in the experiment on RPMI-8226 leukemia, 50.6 µM; in the experiment on CCRF-CEM leukemia it was over 100 µM. For the same compound, the TGI in the experiment with SF-268 CNS worked out at 24.8 µM; in the experiment with UACC-257 melanoma, 16.5 µM; in the experiment with 786-0 renal, 7.67 µM; with CAKI-1 renal, 32.9 µM; in the experiment with MOLT-4 leukemia, 20.5 µM; in the experiment with DU-145 prostate, 21.6 µM. The TGI in the experiment with K-562 leukemia was found to be 59.9 µM; in the experiment with NCI/ADR-RES ovarian it was 25.9 µM; in the experiment with RXF 393 renal it was 15.6 µM; in the experiment on OVCAR-5 ovarian it was 21.5 µM; in the experiment on HCT-116 colon it was 15.7 µM; in the experiment with KM12 colon it was 60.1 µM. The compound further had a TGI with SF-295 CNS of 10.7 µM.

Consider `CC(=O)N1CC(=O)N2C(=O)/C(=C/c3ccc(Cl)cc3)N=C12`, for which the TGI in the experiment on SK-OV-3 ovarian, with UO-31 renal, in the experiment with HS 578T breast, in the experiment on OVCAR-4 ovarian, in the experiment with RPMI-8226 leukemia and in the experiment with CCRF-CEM leukemia was over 100 µM in each case. For the same compound, the TGI in the experiment with SF-268 CNS, in the experiment with UACC-257 melanoma, in the experiment on 786-0 renal, in the experiment on CAKI-1 renal, with MOLT-4 leukemia and in the experiment on DU-145 prostate was over 100 µM each time. Besides, the TGI in the experiment with K-562 leukemia, with NCI/ADR-RES ovarian, in the experiment with RXF 393 renal, with OVCAR-5 ovarian, in the experiment on HCT-116 colon and in the experiment on KM12 colon was over 100 µM each time. The TGI with SF-295 CNS is over 100 µM.

For the compound `O=c1[nH]c(-n2[nH]c3c(c2=O)CCCC3)nc(O)c1-c1ccccc1`, the TGI in the experiment with SK-OV-3 ovarian, in the experiment on UO-31 renal, in the experiment on HS 578T breast, in the experiment with OVCAR-4 ovarian, with RPMI-8226 leukemia and with CCRF-CEM leukemia was over 100 µM each time. The TGI in the experiment with SF-268 CNS, with UACC-257 melanoma, with 786-0 renal, in the experiment with CAKI-1 renal, in the experiment with MOLT-4 leukemia and in the experiment on DU-145 prostate was over 100 µM in each case. Besides, the TGI with K-562 leukemia, with NCI/ADR-RES ovarian, in the experiment with RXF 393 renal, in the experiment on OVCAR-5 ovarian, in the experiment with HCT-116 colon and with KM12 colon was over 100 µM throughout. The compound also had a TGI in the experiment with SF-295 CNS of over 100 µM.

In the case of `COC(=O)/C=C(/OC)[C@H](C)[C@H](/C=C/c1csc(-c2csc(C(C)C)n2)n1)OC`, the TGI was over 100 µM in the experiment on SK-OV-3 ovarian; over 100 µM with UO-31 renal; over 100 µM with HS 578T breast; over 100 µM with OVCAR-4 ovarian; 65.8 µM with RPMI-8226 leukemia; over 100 µM with CCRF-CEM leukemia. Also, the TGI in the experiment with SF-268 CNS, in the experiment with UACC-257 melanoma, in the experiment on 786-0 renal, in the experiment on CAKI-1 renal, in the experiment with MOLT-4 leukemia and in the experiment on DU-145 prostate was over 100 µM in each case. Also, the TGI in the experiment with K-562 leukemia was over 100 µM; in the experiment on NCI/ADR-RES ovarian it was over 100 µM; in the experiment on RXF 393 renal it was over 25 µM; in the experiment with OVCAR-5 ovarian, over 100 µM; in the experiment on HCT-116 colon, over 100 µM; with KM12 colon, over 100 µM. In the experiment with SF-295 CNS, the TGI was over 100 µM.

For `Cc1ccc(NC2=N/C(=C/c3ccccc3)C(Cl)=N2)cc1`, the TGI in the experiment on SK-OV-3 ovarian, in the experiment with UO-31 renal, in the experiment with HS 578T breast, in the experiment with OVCAR-4 ovarian, with RPMI-8226 leukemia and in the experiment on CCRF-CEM leukemia was over 100 µM throughout. Besides, the TGI in the experiment on SF-268 CNS, with UACC-257 melanoma, in the experiment with 786-0 renal, in the experiment on CAKI-1 renal, in the experiment on MOLT-4 leukemia and with DU-145 prostate was over 100 µM in each case. Further, the TGI in the experiment on K-562 leukemia, with NCI/ADR-RES ovarian, in the experiment on RXF 393 renal, in the experiment with OVCAR-5 ovarian, with HCT-116 colon and in the experiment on KM12 colon was over 100 µM each time. Moreover, the TGI in the experiment with SF-295 CNS was over 100 µM.

Regarding `CC(C)N1CN(C(C(=O)N[C@@H]2C(=O)N3C2SC(C)(C)C3C(=O)O)c2ccc(O)cc2)CSC1=S` (stereo not given in full), the TGI with SK-OV-3 ovarian, in the experiment on UO-31 renal, in the experiment on OVCAR-4 ovarian, in the experiment with RPMI-8226 leukemia, with CCRF-CEM leukemia and in the experiment on SF-268 CNS was over 100 µM in each case. Moreover, the TGI in the experiment with UACC-257 melanoma, in the experiment on 786-0 renal, with CAKI-1 renal, in the experiment on MOLT-4 leukemia, in the experiment on K-562 leukemia and in the experiment with OVCAR-5 ovarian was over 100 µM in each case. Moreover, the TGI in the experiment with HCT-116 colon, in the experiment with KM12 colon, in the experiment on XF 498 CNS and in the experiment on SF-295 CNS was over 100 µM each time.
